# Laboratory results reported in PMC12474180 (Toxins, 2025).
# Read-outs that look alike come from different tables or passages of the source.
# Legend:
# [1] = test system: MlrA
# [2] = test system: MlrB
# [3] = test system: MlrC
# [4] = test system: m6-ΔmlrA
# [5] = test system: m6-ΔmlrB
# [6] = test system: m6-ΔmlrC
# [7] = test system: m6-ΔmlrD
# [8] = test system: MlrB; settings: cited from earlier work
# [9] = test system: MlrC; settings: Sphingomonas ACM-3962 and Sphingopyxis sp. C-1; cited from earlier work
# [10] = test system: MlrC; assay: recombinant MlrC; settings: cited from earlier work
# [11] = Sphingopyxis sp. m6 (wild-type) cells in MSM; settings: Sphingopyxis sp. m6, 30 °C, up to 6 h
# [12] = test system: MlrA; assay: purified recombinant MBP-tagged MlrA (0.05 mg/L purified enzymes); settings: Sphingopyxis sp. m6, 30 °C, up to 30 min
# [13] = test system: MlrB; assay: purified recombinant MBP-tagged MlrB (0.05 mg/L purified enzymes); settings: Sphingopyxis sp. m6, 30 °C, up to 6 h
# [14] = test system: MlrC; assay: purified recombinant MBP-tagged MlrC (0.05 mg/L purified enzymes); settings: Sphingopyxis sp. m6, 30 °C, up to 6 h
# [15] = test system: MlrA; settings: cited from earlier work
# [16] = knockout mutant m6-ΔmlrB cells in MSM; settings: Sphingopyxis sp. m6, 30 °C, up to 6 h
# [17] = knockout mutant m6-ΔmlrC cells in MSM; settings: Sphingopyxis sp. m6, 30 °C, up to 6 h
# [18] = knockout mutant m6-ΔmlrD cells in MSM; settings: Sphingopyxis sp. m6, 30 °C, up to 6 h
# [19] = test system: MlrA, MlrB, MlrC; assay: Mlr enzymes of Sphingomonas sp. ACM-3962; settings: cited from earlier work
compound,measurement,setting,value
"COC(Cc1ccccc1)C(C)C=C(C)C=CC(N)C(C)C(=O)O (stereo not shown) [Adda, 3-amino-9-methoxy-2,6,8-trimethyl-10-phenyl-deca-4,6-dienoic acid]",Degrading ability of MlrA,[1],-
same,Degrading ability of MlrB,[2],-
same,Degrading ability of MlrC,[3],-
same,degrading ability of the strain,[4],can all degrade
same,degrading ability of the strain,[5],can all degrade
same,degrading ability of the strain,[6],can all degrade
same,degrading ability of the strain,[7],can all degrade
Adda-Glu-Mdha-Ala-Leu-MeAsp-Arg,fragment found,[8],tetrapeptide (Adda-Glu-Mdha-Ala)
same,fragment found,[9],Adda
same,fragment found,[10],hexapeptide compound
same,cleaved bond,[11],Ala-Leu
same,not cleaved,[12],can’t degrade
same,cleaved bond,[13],Ala-Leu
same,cleaved bond,[14],Adda-Glu
cyclo-(Ala-Leu-MeAsp-Arg-Adda-Glu-Mdha),fragment found,[15],"linearized MC-LR (Adda-Glu-Mdha-Ala-Leu-MeAsp-Arg), first_seen"
same,fragment found,[16],"linearized MC-LR, within 1 h and tetrapeptide, minor and Adda"
same,fragment found,[17],"linearized MC-LR, within 1 h and tetrapeptide and Adda"
same,fragment found,[18],"linearized MC-LR, within 1 h and tetrapeptide and Adda"
same,cleaved bond,[11],"Arg-Adda, first_seen"
same,fragment found,[19],linearized MC-LR and tetrapeptide and Adda
same,cleaved bond,[12],Arg-Adda
same,not cleaved,[13],can’t degrade
same,not cleaved,[14],can’t degrade
Adda-Glu-Mdha-Ala,fragment found,[9],Adda
same,cleaved bond,[11],Adda-Glu
same,not cleaved,[12],can’t degrade
same,not cleaved,[13],can’t degrade
same,cleaved bond,[14],Adda-Glu
